From publication PMC9820118, “Betulin Acid Ester Derivatives Inhibit Cancer Cell Growth by Inducing Apoptosis through Caspase Cascade Activation: A Comprehensive In Vitro and In Silico Study” (International Journal of Molecular Sciences, 2022)
“Also recorded” adds a separate entry of the source.

Tests used:
MV4-11 cells [1] = experiment: Antiproliferative activity, MTT assay, MV4-11 leukemia cells; format: cell-based, human; conditions: for IC50: Homo sapiens, MV4-11, 72 h, 72 h incubation, MTT, read-out: Growth inhibition IC50, leukemia cell line MV4-11; for Calculated Selectivity Index SI, MV4-11: IC50 BALB/3T3 / IC50 MV4-11
Description: (§7) The in vitro antiproliferative activity tests have been conducted against four human cancer cell lines: MV4-11 biphenotypic B myelomonocytic leukemia cell line, A549 lung carcinoma cell line, MCF-7 breast carcinoma cell line, PC-3 prostate carcinoma cell line and one normal BALB/3T3 mouse fibroblast cell line. […] All tested compounds were dissolved in DMSO and diluted with a culture medium to a desired concentration. […] Cell viability, after 72 h incubation of the cells with tested compounds, was determined using tetrazolinum dye MTT (for MV4-11 cells) or sulforhodamine B (SRB test, for MCF-7, A549, PC-3, BALB/3T3 cells) colorimetric assays.
(§8) Human biphenotypic B myelomonocytic leukemia MV4-11, murine normal fibroblast BALB/3T3 cells were obtained from the American Type Culture Collection (USA); and human lung carcinoma A549, human breast cancer MCF-7 and human prostate adenocarcinoma PC-3 were obtained from the European Collection of Authenticated Cell Cultures (UK).
(§9) MV4-11 and PC-3 cells were cultured in RPMI 1640 medium (HIIET PAS, Poland) with 1.0 mM sodium pyruvate (only MV4-11) and 10% fetal bovine serum (FBS) (all from Merck, Darmstadt, Germany). A549 cells were cultured in RPMI 1640 + Opti-MEM (1:1) ((HIIET PAS, Poland and Gibco, UK) supplemented with 5% fetal bovine serum (Merck, Darmstadt, Germany). The MCF-7 cells were cultured in Eagle medium (HIIET PAS, Poland) supplemented with 8 mg/mL of insulin and 1% of MEM NON-Essential amino acid (all Merck, Darmstadt, Germany). Normal fibroblasts BALB/3T3 cells were cultured in DMEM medium (Gibco, UK) supplemented with 10% fetal bovine serum and 1.0 mM sodium pyruvate (all from Merck, Darmstadt, Germany). All culture media were supplemented with 2 mM L-glutamine (Merck, Darmstadt, Germany), 100 units/ml penicillin, (Polfa Tarchomin S.A., Poland) and 100 µg/mL streptomycin (Merck, Darmstadt, Germany). All cell lines were grown at 37 °C in a 5% CO2 humidified atmosphere.
(§10) The solutions of the tested compounds were prepared by dissolving the substances in DMSO to the desired concentration (25 mM). Then, the tested compounds were diluted in a culture medium to reach the final concentrations. Before addition of the tested compounds (24 h prior), the cells were plated in 96-well plates (Sarstedt, Germany) at a density of 1 × 10^4, 0.75 × 10^4 (MCF-7) or 0.5 × 10^4 (A549) cells per well. The assay was performed after 72 h of exposure to 100, 10, 1 and 0.1 µM concentration of the tested agents. […] The SRB method determined the amount of cellular proteins. The concentration of the colorimetric probe (formazan in MTT or sulforhodamine B in SRB method) was determined by an optical density measurement using a standard microplate reader for 96-well plates. After optical density measurement, using the data of the mean absorbances of control cells (AbCC), the absorbances of cells treated by the tested compound (AbTr) (for each concentration separately) and the absorbance of the cultured medium (AbCM) the % of cell proliferation inhibition was calculated according to the following formula: % inh. cells proliferation=100−AbTr−AbCM/AbCC−AbCM×100
(§11) From the obtained proliferation inhibition values, effect-concentration curves of the compound used were plotted. […] IC50 values were calculated for each experiment separately using the Prolab-3 system based on Cheburator 0.4 software [36] and mean values (±SD) are presented. Each compound in each concentration was tested in triplicate in a single experiment, which was repeated 3–5 times.

A549 cells [2] = experiment: Induction of apoptosis, Annexin V/PI staining, A549; format: cell-based, human; conditions: about 1.5 × IC50, 24 h
Description: (§1) Apoptosis is one of a cell’s natural mechanisms for programmed cell death. It plays a crucial role in homeostasis by eliminating the unwanted or unnecessary cells. One of the most important functions of apoptosis is prevention of cancer. However, cancer cells often lose the ability to enter the path of apoptosis, which allows them to survive longer and grow in an uncontrolled manner. Regardless of that, apoptosis still remains the most important molecular mechanism to combat cancer cells; therefore, research is conducted to obtain agents with the ability to selectively induce apoptosis in cancer cell lines.
(§2) The MV4-11, A549 and PC-3 cells were seeded on 24-well plates (Sarstedt, Germany) for a final volume of 1.5 mL. […] After incubation, the cells were collected and 2 × 10^5 of cells were washed twice with PBS. […] Results were analyzed using Flowing software 2.5.1. […]

PC-3 cells = experiment: Induction of apoptosis, Annexin V/PI staining, PC-3; format: cell-based, human; conditions: about 1.5 × IC50, 72 h
Description: as §1, §2

A549 cells [3] = experiment: Cell cycle analysis, PI staining flow cytometry, A549; format: cell-based, human; conditions: for Influence on cell cycle, A549, 72 h: about IC50, 72 h
Description: (§3) The effects of the selected derivatives on the cell cycle were analyzed by flow cytometry using PI staining.
(§4) The MV4-11, A549 and PC-3 cells were seeded on 24-well plates (Sarstedt, Germany) for a final volume of 1.5 mL. […] After incubation, the cells were collected and 1 × 10^6 of cells were washed twice in cold PBS and fixed for 24 h in 70% ethanol at −20 °C, the cells were washed twice in PBS and incubated with RNAse (8 μg/mL, Fermentas, Germany) at 37 °C for 1 h. The cells were stained for 30 min. with propidium iodide (50 μg/mL, Sigma Aldrich, Germany) at 4 °C and the cellular DNA content was analyzed by flow cytometry using BD LSRFortessa cytometer (BD Bioscience, San Jose, CA, USA). Compounds at each concentration were tested at least three times independently. The obtained results were analyzed using Flowing software 2.5.1 (Cell Imaging Core, Turku Centre for Biotechnology, University of Turku and Åbo Akademi University, Turku, Finland).

MV4-11 cells [4] = experiment: Cell cycle analysis, PI staining flow cytometry, MV4-11; format: cell-based, human; conditions: about IC50, 24 and 72 h
Description: as §3, §4

caspase-3/7 [5] = experiment: Caspase-3/7 activity (AC-DEVD-AMC substrate) in A549 cells; format: cell-based, human; set-up: key: +: plus mark represents statistically important elevated activity of caspase 3/7 compared to control
Description: (§5) Caspase-3 and caspase-7 are cysteine-aspartic acid proteases that can directly execute apoptosis […] sequential activation of caspase-8 or caspase-9. Activation of these enzymes leads to apoptotic cell death; thus, measuring their activity is a good method to determine the pro-apoptotic potential of tested compounds. One of the mechanisms of betulin’s antiproliferative activity is activation of these enzymes; therefore, to further examine the mechanism of action of tested derivatives, we decided to determine their levels.
(§6) The MV4-11, A549 and PC-3 cells were seeded on 48-well plates for a final volume of 1 mL. […] After incubation, the cells were collected and centrifuged (5 min., 4 °C, 250× g). Cells were suspended in 50 µL of ice-cold lysis buffer (50 mM HEPES, 10% (w/v) sucrose, 150 mM NaCl, 2 mM EDTA and 1% (v/v) Triton X-100, pH 7.3, HIIET, Poland) and incubated 30 min. at […]. After the incubation, 40 µL of each sample was transferred to a white, 96-well plate (Corning, CA, USA) containing 160 µL of the reaction buffer (20 mM HEPES, 10 % sucrose, 100 mM NaCl, 1 mM EDTA, 10 mM DTT, 0.02 % Trition X-100, pH 7.3) (HIIET, Wroclaw, Poland) with 9 µM AC-DEVD-AMC (Cayman Chemical) fluorogenic substrate (λex = 360 nm, λem = 460 nm). The fluorescence increase correlated with the caspase-3/7 level was continuously recorded at 37 °C for 120 min using a Biotek Synergy H4 (Biokom, Warsaw, Poland). Compounds were tested in duplicates in a single experiment and each experiment was repeated at least three times independently. Results were normalized to the number of cells in each well and are reported as mean relative caspase-3/7 activity compared to the untreated control sample ± SD.

caspase-3/7 [6] = experiment: Caspase-3/7 activity (AC-DEVD-AMC substrate) in PC-3 cells; format: cell-based, human; set-up: key to Caspase 3/7 Activity, PC-3: +: plus mark represents statistically important elevated activity of caspase 3/7 compared to control; conditions: for Caspase 3/7 Activity, PC-3: +/− summary vs control
Description: as §5, §6

[7] = Experimental lipophilicity by RP-TLC; conditions: for RM0: RP-TLC, RP-18 F254S, acetone / Tris buffer pH 7.4, extrapolated to zero acetone
Description: The retention mechanism in the RP-TLC method is based on the partition of substances between two phases. Silica gel (RP-18 F254S plates) was used as the hydrophobic stationary phase. In contrast, the hydrophilic mobile phase was a binary mixture of acetone and an aqueous solution of TRIS buffer.
Chromatographic analysis by RP-TLC was performed an aluminum backed silica gel RP-18 F254S
phenylanthracene] and tested betulin derivatives were dissolved in chloroform to obtain a
concentration of 2 mg/mL. The prepared solutions were spotted on the plates in the amount of 2 μL.
the next step, the chromatographic chambers were saturated 30 min of the appropriate mobile phases
consisting of a mixture of acetone (Merck, Darmstadt, Germany) and aqueous solution of buffer Tris
[(tris-hydroxymethyl)aminomethane] (Fluka, Loughborough, 0.2 M, pH 7.4). The amount of acetone in
the mobile phase were in the range 60-90% in 5% increments. The chromatograms were developed for
each compound in triplicate at room temperature. The spots of betulin derivatives were visualized by
spraying the plates with the mixture of ethanol and concentrated sulfuric acid (10:1, v/v) and heating
The retardation factor (Rf) were calculated according to the equation below:
(a-the distance from the start line to the spot center, b-the distance from the start line to the mobile
The RM values were calculated by the Bate-Smith and Westall equation:
The RM0 parameters were obtained by extrapolating on the acetone content to zero, according to the
Soczewiński-Wachtmeister equation:
(C-the percentage concentration of acetone in the mobile phase, b-the slope of the regression plot).
The calibration curve was determined using eight reference compounds.
compounds were determined under the same conditions as for betulin derivatives (Table S1).

[8] = Cytotoxicity, SRB assay, normal BALB/3T3 fibroblasts; conditions: mouse, BALB/3T3 normal fibroblast cells
Description: as §7, §8, §9, §10, §11

A549 cell line = experiment: Antiproliferative activity, SRB assay, A549 lung carcinoma cells; conditions: for IC50: Homo sapiens, A549, 72 h, read-out: Cytotoxicity IC50 against A549 cell line; for Calculated Selectivity Index SI, A549: IC50 BALB/3T3 / IC50 A549; for Antiproliferative Activity, A549: +/− summary, IC50 vs betulin 1
Description: as §7, §8, §9, §10, §11

MCF-7 cell line = experiment: Antiproliferative activity, SRB assay, MCF-7 breast carcinoma cells; conditions: for IC50: Homo sapiens, MCF7, 72 h, read-out: Cytotoxicity IC50 against MCF-7 cell line; for Calculated Selectivity Index SI, MCF-7: IC50 BALB/3T3 / IC50 MCF-7
Description: as §7, §8, §9, §10, §11

PC-3 cell line = experiment: Antiproliferative activity, SRB assay, PC-3 prostate carcinoma cells; conditions: for IC50: Homo sapiens, PC-3, 72 h, read-out: Cytotoxicity IC50 against PC-3 cell line; for Calculated Selectivity Index SI, PC-3: IC50 BALB/3T3 / IC50 PC-3
Description: as §7, §8, §9, §10, §11

in vitro = conditions: mouse
Description: as §7, §8, §9, §10, §11

caspase-3/7 [9] = experiment: Caspase-3/7 activity (AC-DEVD-AMC substrate) in MV4-11 cells; format: cell-based, human
Description: as §5
The MV4-11, A549 and PC-3 cells were seeded on 48-well plates for a final volume of 1 mL. […] After incubation, the cells were collected and centrifuged (5 min., 4 °C, 250× g). Cells were suspended in 50 µL of ice-cold lysis buffer (50 mM HEPES, 10% (w/v) sucrose, 150 mM NaCl, 2 mM EDTA and 1% (v/v) Triton X-100, pH 7.3, HIIET, Poland) and incubated 30 min. at 40 °C. […] The fluorescence increase correlated with the caspase-3/7 level was continuously recorded at 37 °C for 120 min using a Biotek Synergy H4 (Biokom, Warsaw, Poland). […]

[10] = set-up: method as in earlier work; conditions: literature lipophilicity of RP-TLC reference compounds; cited from earlier work
[11] = 1.5 × IC50, 24 h, several-fold lower at 72 h

Compound	IC50 (MV4-11 cells [1])	Calculated Selectivity Index SI, MV4-11 (MV4-11 cells [1])	Induction of apoptosis (AnV/PI), PC-3, 72 h (PC-3 cells)	Influence on cell cycle, A549, 72 h (A549 cells [3])	caspase 3/7 activity, A549 (caspase-3/7 [5]; [11])	caspase 3/7 activity, A549 (caspase-3/7 [5]; +/− summary vs control)	Caspase 3/7 Activity, PC-3 (caspase-3/7 [6])	RM0 [7]	IC50 (A549 cell line)	Calculated Selectivity Index SI, A549 (A549 cell line)	IC50 (MCF-7 cell line)	Calculated Selectivity Index SI, MCF-7 (MCF-7 cell line)	IC50 (PC-3 cell line)	Calculated Selectivity Index SI, PC-3 (PC-3 cell line)	IC50 at 72 h (in vitro)	Antiproliferative Activity, A549 (A549 cell line)	caspase-3/7 levels, MV4-11, 24 h (caspase-3/7 [9])	further results
C=C(C)[C@@H]1CC[C@]2(COC(=O)CCC(=O)O)CC[C@]3(C)C(CCC4[C@@]5(C)CC[C@H](O)C(C)(C)C5CC[C@]43C)C12 (some centres unmarked) [compound 2]	23.2 µM	2.3	shifting the ratio of the living cell population towards apoptotic and necrotic ones	greater percentage of dead cells with a decrease in G2/M and G0/G1 phases	hugely elevated caspase 3/7 activity	+	+	5.910	35.3 µM	1.5	53.6 µM	1.0	68.5 µM	0.8				Induction of apoptosis (AnV/PI), A549, 24 h (A549 cells [2]): significantly increased levels of early-apoptotic and apoptotic cells; Influence on cell cycle, A549, 24 h (A549 cells [3]; about IC50, 24 h): significantly induced cell cycle arrest in the G0/G1 phase; also recorded: reduced the number of cells in the S phase with an increased number of dead cells; Influence on cell cycle, MV4-11 (MV4-11 cells [4]): statistically significant increase in the number of cells in the G0/G1 phase; log PTLC ([7]; from RM0 by calibration curve with eight reference compounds): 8.191; IC50 at 72 h [8]: 53.4 µM
C=C(C)[C@@H]1CC[C@]2(COC(=O)CCC(=O)N3CCOCC3)CC[C@]3(C)C(CCC4[C@@]5(C)CC[C@H](O)C(C)(C)C5CC[C@]43C)C12 (some centres unmarked) [2b]	3.94 µM	6.4	shifting the ratio of the living cell population towards apoptotic and necrotic ones		hugely elevated caspase 3/7 activity	+	+	5.024	8.03 µM	3.1	19.3 µM	1.3	17.9 µM	1.4	25 µM	+		caspase-3/7 activity, PC-3 (caspase-3/7 [6]; 1.5 × IC50, 24 and 72 h): very high level of caspase-3/7 after 24 and 72 h; Antiproliferative Activity, PC-3 (PC-3 cell line; +/− summary, IC50 vs betulin 1): +
C=C(C)[C@@H]1CC[C@]2(COC(=O)CCC(=O)N3CCSCC3)CC[C@]3(C)C(CCC4[C@@]5(C)CC[C@H](O)C(C)(C)C5CC[C@]43C)C12 (some centres unmarked) [2d]	3.16 µM	15.8		greater percentage of dead cells with a decrease in G2/M and G0/G1 phases				5.898	32 µM	1.6	50 µM	1.0	50 µM	1.0	> 50 µM		increased levels of caspase-3/7	
C=C(C)[C@@H]1CC[C@]2(COC(=O)CCC(=O)N3CCCCC3)CC[C@]3(C)C(CCC4[C@@]5(C)CC[C@H](O)C(C)(C)C5CC[C@]43C)C12 (some centres unmarked) [2c]	5.78 µM	5.7		induced cycle arrest in the G0/G1 phase with a decrease in the G2/M phase	hugely elevated caspase 3/7 activity	+		5.728	6.98 µM	4.7	22.2 µM	1.5	30.9 µM	1.1	32.7 µM	+	increased levels of caspase-3/7	
c1ccc(CCc2ccccc2)cc1 [dibenzyl, reference compound]								3.54										LogPlit [10]: 4.49
